According to US20060235020A1, “Process for preparing salts of 4-[[5-[(cyclopropylamino)carbonyl]-2-methylphenyl]amino]-5-methyl-N-propylpyrrolo[2,1-f][1,2,4]triazine-6-carboxamide and novel stable forms produced therein” (priority 2005, published 2006):
Read-outs that look alike come from different tables or passages of the source.

What was measured:
[1] = Procedure: Moisture sorption isotherms were collected in a VTI SGA-100 Symmetric Vapor Analyzer using approximately 10 mg of sample. The sample was dried at 60° C. until the loss rate of 0.0005 wt %/min was obtained for 10 minutes. The sample was tested at 25° C. (for free base 1 and N-1 HCl salt) or 30° C. (for N-4 HCl salt) and 3 or 4, 5, 15, 25, 35, 45, 50, 65, 75, 85, and 95% RH. Equilibration at each RH was reached when the rate of 0.0003 wt %/min for 35 minutes was achieved or a maximum of 600 minutes.
[2] = slurries in THF, acetonitrile, acetone and DMF/acetone at room temperature
Description: Form N-4 of the hydrochloric acid salt of the free base I crystallizes from organic solvents, preferably DMF/acetone.

[3] = Stability of the crystals in the solid state; type: physicochemical; conditions: isolated solid

Structure (SMILES) | hygroscopicity / water uptake (moisture-sorption isotherm) ([1]; about 25 to about 75% RH at 25° C.) | hygroscopicity / water uptake (moisture-sorption isotherm) ([1]; about 25 to about 75% RH at 25° C., listed as Form N-1 crystals of the hydrochloric acid salt of free base I) | relative stability of the crystal form in slurries ([2]; listed as Form N-1) | stability in the solid state form [3] | hygroscopicity / water uptake (moisture-sorption isotherm) ([1]; about 25 to about 75% RH at 30° C.) | hygroscopicity / water uptake (moisture-sorption isotherm) ([1]; about 25 to about 75% RH at 30° C., listed as Form N-4 crystals of free base I) | relative stability of the crystal form in slurries ([2]; listed as Form N-4)
CCCNC(=O)c1cn2ncnc(Nc3cc(C(=O)NC4CC4)ccc3C)c2c1C.Cl [Form N-1 hydrochloride salt, hydrochloric acid salt of 4-[[5-[(cyclopropylamino)carbonyl]-2-methylphenyl]amino]-5-methyl-N-propylpyrrolo[2,1-f][1,2,4]triazine-6-carboxamide] | non-hygroscopic | negligible water uptake | convert to Form N-4 | remain stable in the solid state form | – | – | –
CCCNC(=O)c1cn2ncnc(Nc3cc(C(=O)NC4CC4)ccc3C)c2c1C.Cl [Form N-4 salt, hydrochloric acid salt of 4-[[5-[(cyclopropylamino)carbonyl]-2-methylphenyl]amino]-5-methyl-N-propylpyrrolo[2,1-f][1,2,4]triazine-6-carboxamide] | – | – | – | – | non-hygroscopic | negligible water uptake | stable form at room temperature
